{
  "source": "PubChem BioAssay AID1963841",
  "about": "(Molecular Pharmacology Branch, DTP, NCI, 2024)",
  "test_system": "439559-082-T-J2-PDC spheroid viability",
  "assay": "Anticancer human tumor 439559-082-T-J2-PDC patient-derived colon adenocarcinoma cell line growth inhibition [POLQ]",
  "conditions": "spheroids with HUVEC and MSC; for IC50: curve of first compound; for viability, T/C: stronger effect = lower value",
  "summary_of_the_method": "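Growth inhibition in 3D: complex spheroids (tumor PDC, HUVEC, MSC) treated with POLQ inhibitor combinations; where Cmax unknown, highest tested concentration 10 microM, except SN-38 at 1 microM.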",
  "key": {"[1]": {"conditions": "second compound 0.0316 µM, first compound 0.00316 µM"}, "[2]": {"conditions": "second compound 0.0316 µM, first compound 0.01 µM"}, "[3]": {"conditions": "second compound 0.0316 µM, first compound 0.0316 µM"}, "[4]": {"conditions": "second compound 0.0316 µM, first compound 0.1 µM"}, "[5]": {"conditions": "second compound 0.1 µM, first compound 0.00316 µM"}, "[6]": {"conditions": "second compound 0.1 µM, first compound 0.01 µM"}, "[7]": {"conditions": "second compound 0.1 µM, first compound 0.0316 µM"}, "[8]": {"conditions": "second compound 0.1 µM, first compound 0.1 µM"}, "[9]": {"conditions": "second compound 0.316 µM, first compound 0.00316 µM"}, "[10]": {"conditions": "second compound 0.316 µM, first compound 0.01 µM"}, "[11]": {"conditions": "second compound 0.316 µM, first compound 0.0316 µM"}, "[12]": {"conditions": "second compound 0.316 µM, first compound 0.1 µM"}, "[13]": {"conditions": "second compound 1 µM, first compound 0.00316 µM"}, "[14]": {"conditions": "second compound 1 µM, first compound 0.01 µM"}, "[15]": {"conditions": "second compound 1 µM, first compound 0.0316 µM"}, "[16]": {"conditions": "second compound 1 µM, first compound 0.1 µM"}, "[17]": {"conditions": "second compound 3.16 µM, first compound 0.00316 µM"}, "[18]": {"conditions": "second compound 3.16 µM, first compound 0.01 µM"}, "[19]": {"conditions": "second compound 3.16 µM, first compound 0.0316 µM"}, "[20]": {"conditions": "second compound 3.16 µM, first compound 0.1 µM"}, "[21]": {"conditions": "second compound 10 µM, first compound 0.00316 µM"}, "[22]": {"conditions": "second compound 10 µM, first compound 0.01 µM"}, "[23]": {"conditions": "second compound 10 µM, first compound 0.0316 µM"}, "[24]": {"conditions": "second compound 10 µM, first compound 0.1 µM"}},
  "data": [
    {"molecule": "C=CCn1c(=O)c2cnc(Nc3ccc(N4CCN(C)CC4)cc3)nc2n1-c1cccc(C(C)(C)O)n1", "note": "+ Cc1cccc(N(C)C(=O)C2C(O)CCN2c2nc(C)cc(C(F)(F)F)c2C#N)c1;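 also: spheroids exposed to compounds for seven days before readout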;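 as to viability, T/C: 100% = DMSO vehicle control viability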", "values": [
      {"measurement": "IC50", "setting": "second compound 0.0316 µM", "value": "> 1000", "unit": "nM"},
      {"measurement": "IC50", "setting": "second compound 0.1 µM", "value": "> 1000", "unit": "nM"},
      {"measurement": "IC50", "setting": "second compound 0.316 µM", "value": "> 1000", "unit": "nM"},
      {"measurement": "IC50", "setting": "second compound 1 µM", "value": "> 1000", "unit": "nM"},
      {"measurement": "IC50", "setting": "second compound 3.16 µM", "value": "> 1000", "unit": "nM"},
      {"measurement": "IC50", "setting": "second compound 10 µM", "value": "> 1000", "unit": "nM"},
      {"measurement": "viability, T/C", "setting": "[1]", "value": 104, "unit": "%"},
      {"measurement": "viability, T/C", "setting": "[2]", "value": 96.8, "unit": "%"},
      {"measurement": "viability, T/C", "setting": "[3]", "value": 93.3, "unit": "%"},
      {"measurement": "viability, T/C", "setting": "[4]", "value": 92.1, "unit": "%"},
      {"measurement": "viability, T/C", "setting": "second compound 0.0316 µM, first compound 0.316 µM", "value": 83.7, "unit": "%"},
      {"measurement": "viability, T/C", "setting": "second compound 0.0316 µM, first compound 1 µM", "value": 78.9, "unit": "%"},
      {"measurement": "viability, T/C", "setting": "[5]", "value": 98, "unit": "%"},
      {"measurement": "viability, T/C", "setting": "[6]", "value": 103, "unit": "%"},
      {"measurement": "viability, T/C", "setting": "[7]", "value": 107, "unit": "%"},
      {"measurement": "viability, T/C", "setting": "[8]", "value": 88.3, "unit": "%"},
      {"measurement": "viability, T/C", "setting": "second compound 0.1 µM, first compound 0.316 µM", "value": 93.1, "unit": "%"},
      {"measurement": "viability, T/C", "setting": "second compound 0.1 µM, first compound 1 µM", "value": 84.1, "unit": "%"},
      {"measurement": "viability, T/C", "setting": "[9]", "value": 104, "unit": "%"},
      {"measurement": "viability, T/C", "setting": "[10]", "value": 104, "unit": "%"},
      {"measurement": "viability, T/C", "setting": "[11]", "value": 85.8, "unit": "%"},
      {"measurement": "viability, T/C", "setting": "[12]", "value": 95.3, "unit": "%"},
      {"measurement": "viability, T/C", "setting": "second compound 0.316 µM, first compound 0.316 µM", "value": 100, "unit": "%"},
      {"measurement": "viability, T/C", "setting": "second compound 0.316 µM, first compound 1 µM", "value": 71, "unit": "%"},
      {"measurement": "viability, T/C", "setting": "[13]", "value": 86.3, "unit": "%"},
      {"measurement": "viability, T/C", "setting": "[14]", "value": 99.8, "unit": "%"},
      {"measurement": "viability, T/C", "setting": "[15]", "value": 102, "unit": "%"},
      {"measurement": "viability, T/C", "setting": "[16]", "value": 102, "unit": "%"},
      {"measurement": "viability, T/C", "setting": "second compound 1 µM, first compound 0.316 µM", "value": 93.4, "unit": "%"},
      {"measurement": "viability, T/C", "setting": "second compound 1 µM, first compound 1 µM", "value": 75.3, "unit": "%"},
      {"measurement": "viability, T/C", "setting": "[17]", "value": 94.6, "unit": "%"},
      {"measurement": "viability, T/C", "setting": "[18]", "value": 105, "unit": "%"},
      {"measurement": "viability, T/C", "setting": "[19]", "value": 91.7, "unit": "%"},
      {"measurement": "viability, T/C", "setting": "[20]", "value": 95.4, "unit": "%"},
      {"measurement": "viability, T/C", "setting": "second compound 3.16 µM, first compound 0.316 µM", "value": 96.5, "unit": "%"},
      {"measurement": "viability, T/C", "setting": "second compound 3.16 µM, first compound 1 µM", "value": 76.8, "unit": "%"},
      {"measurement": "viability, T/C", "setting": "[21]", "value": 100, "unit": "%"},
      {"measurement": "viability, T/C", "setting": "[22]", "value": 90.6, "unit": "%"},
      {"measurement": "viability, T/C", "setting": "[23]", "value": 99.3, "unit": "%"},
      {"measurement": "viability, T/C", "setting": "[24]", "value": 97.8, "unit": "%"},
      {"measurement": "viability, T/C", "setting": "second compound 10 µM, first compound 0.316 µM", "value": 93.5, "unit": "%"},
      {"measurement": "viability, T/C", "setting": "second compound 10 µM, first compound 1 µM", "value": 74.3, "unit": "%"}
    ]},
    {"molecule": "Cn1ncnc1[C@H]1c2n[nH]c(=O)c3cc(F)cc(c23)N[C@@H]1c1ccc(F)cc1", "note": "+ COC1C(OC(N)=O)C(O)C(Oc2ccc3c(O)c(NC(=O)c4ccc(O)c(CC=C(C)C)c4)c(=O)oc3c2C)OC1(C)C", "values": [
      {"measurement": "IC50", "setting": "second compound 0.0316 µM", "value": "> 100", "unit": "nM"},
      {"measurement": "IC50", "setting": "second compound 0.1 µM", "value": "> 100", "unit": "nM"},
      {"measurement": "IC50", "setting": "second compound 0.316 µM", "value": "> 100", "unit": "nM"},
      {"measurement": "IC50", "setting": "second compound 1 µM", "value": "> 100", "unit": "nM"},
      {"measurement": "IC50", "setting": "second compound 3.16 µM", "value": "> 100", "unit": "nM"},
      {"measurement": "IC50", "setting": "second compound 10 µM", "value": "> 100", "unit": "nM"},
      {"measurement": "viability, T/C", "setting": "second compound 0.0316 µM, first compound 0.000316 µM", "value": 110, "unit": "%"},
      {"measurement": "viability, T/C", "setting": "second compound 0.0316 µM, first compound 0.001 µM", "value": 95.8, "unit": "%"},
      {"measurement": "viability, T/C", "setting": "[1]", "value": 102, "unit": "%"},
      {"measurement": "viability, T/C", "setting": "[2]", "value": 99.8, "unit": "%"},
      {"measurement": "viability, T/C", "setting": "[3]", "value": 99, "unit": "%"},
      {"measurement": "viability, T/C", "setting": "[4]", "value": 95.4, "unit": "%"},
      {"measurement": "viability, T/C", "setting": "second compound 0.1 µM, first compound 0.000316 µM", "value": 110, "unit": "%"},
      {"measurement": "viability, T/C", "setting": "second compound 0.1 µM, first compound 0.001 µM", "value": 108, "unit": "%"},
      {"measurement": "viability, T/C", "setting": "[5]", "value": 109, "unit": "%"},
      {"measurement": "viability, T/C", "setting": "[6]", "value": 101, "unit": "%"},
      {"measurement": "viability, T/C", "setting": "[7]", "value": 99.4, "unit": "%"},
      {"measurement": "viability, T/C", "setting": "[8]", "value": 91.1, "unit": "%"},
      {"measurement": "viability, T/C", "setting": "second compound 0.316 µM, first compound 0.000316 µM", "value": 104, "unit": "%"},
      {"measurement": "viability, T/C", "setting": "second compound 0.316 µM, first compound 0.001 µM", "value": 102, "unit": "%"},
      {"measurement": "viability, T/C", "setting": "[9]", "value": 103, "unit": "%"},
      {"measurement": "viability, T/C", "setting": "[10]", "value": 102, "unit": "%"},
      {"measurement": "viability, T/C", "setting": "[11]", "value": 94.1, "unit": "%"},
      {"measurement": "viability, T/C", "setting": "[12]", "value": 91.1, "unit": "%"},
      {"measurement": "viability, T/C", "setting": "second compound 1 µM, first compound 0.000316 µM", "value": 108, "unit": "%"},
      {"measurement": "viability, T/C", "setting": "second compound 1 µM, first compound 0.001 µM", "value": 97.1, "unit": "%"},
      {"measurement": "viability, T/C", "setting": "[13]", "value": 103, "unit": "%"},
      {"measurement": "viability, T/C", "setting": "[14]", "value": 94.2, "unit": "%"},
      {"measurement": "viability, T/C", "setting": "[15]", "value": 99.1, "unit": "%"},
      {"measurement": "viability, T/C", "setting": "[16]", "value": 99, "unit": "%"},
      {"measurement": "viability, T/C", "setting": "second compound 3.16 µM, first compound 0.000316 µM", "value": 101, "unit": "%"},
      {"measurement": "viability, T/C", "setting": "second compound 3.16 µM, first compound 0.001 µM", "value": 99.6, "unit": "%"},
      {"measurement": "viability, T/C", "setting": "[17]", "value": 102, "unit": "%"},
      {"measurement": "viability, T/C", "setting": "[18]", "value": 102, "unit": "%"},
      {"measurement": "viability, T/C", "setting": "[19]", "value": 96.5, "unit": "%"},
      {"measurement": "viability, T/C", "setting": "[20]", "value": 93.5, "unit": "%"},
      {"measurement": "viability, T/C", "setting": "second compound 10 µM, first compound 0.000316 µM", "value": 106, "unit": "%"},
      {"measurement": "viability, T/C", "setting": "second compound 10 µM, first compound 0.001 µM", "value": 93.3, "unit": "%"},
      {"measurement": "viability, T/C", "setting": "[21]", "value": 108, "unit": "%"},
      {"measurement": "viability, T/C", "setting": "[22]", "value": 96, "unit": "%"},
      {"measurement": "viability, T/C", "setting": "[23]", "value": 104, "unit": "%"},
      {"measurement": "viability, T/C", "setting": "[24]", "value": 91, "unit": "%"}
    ]}
  ]
}
